Measurements as given in US20220144809A1, “COMPOUNDS AND METHODS FOR THE TARGETED DEGRADATION OF ANDROGEN RECEPTOR AND ASSOCIATED METHODS OF USE” (Arvinas Operations, Inc., priority 2020, published 2022).

test system: Androgen Receptor (AR); assay: Androgen Receptor ELISA assay (AR degradation in LNCaP and/or VCaP cells); format: cell-based; settings: degradation of AR, 5 hours incubation, R1881 in media
Protocol: Assay for Testing AR Degradation Driven by Compounds of the Present Disclosure.
Androgen Receptor ELISA Assay. Compounds were evaluated in the following assay in LNCaP and/or VCaP cells utilizing similar protocols. The protocols used with VCaP cells are described below. The androgen receptor ELISA assay was performed using PathScan AR Sandwich ELISA (Cell Signaling Catalog#12850) according to the following assay steps.
VCaP cells were seeded at 40,000 cells/well at a volume of 100 μL/well in VCaP assay medium [Phenol red free RPMI (Gibco Cat#11835-030); 5% Charcoal Stripped (Dextran treated) FBS (Omega Scientific, Cat#FB-04); 1% penstrep (Life Technologies, Gibco Cat#: 10378-016)] in Corning 3904 plates. The cells were grown for a minimum of 3 days.
First, cells were dosed with compounds diluted in […]—in a polypropylene plate avoiding the use of outer columns according to the following protocol: (1)(i) 1000× stock plate in DMSO was made; (ii) 20 mM stock diluted 1/6.7 with DMSO (5 μL+28.3 μL DMSO)=3 mM into row H; (iii) serial dilutions in ½ log doses (10 μL of bifunctional compound+20 μL DMSO) was performed from row H towards row B with row A being reserved for DMSO; (iv) 7 doses total (final concentration in this 1000× plate will be 3 mM, 1 mM, 333 μM, 111 μM, etc). (2)(i) A 10× stock plate in media was made; (ii) 2.5 μL of the 1000× stock was trasnferred to a new 10× stock plate (use 12 channel pipet, start at A (DMSO control) work thru H. When 247.5 μL of media was added to this plate, it served as a 10× stock; (iii) made media+1 nM R1881 for making 10× stock plate; (iv) added 247.5 μL of media with 1 nM R1881 to each well of the 10× stock plate, mix.
Then 22 μL of 10× stock was added to cells and incubated for 5 hours. 1× Cell Signaling Cell lysis buffer was made (Catalogue #9803; comes with the kit) to have […], and was kept on ice. Media was aspirated, and 100 μL 1× cell lysis buffer/well was added. The cells were placed on a shaker located in a cold room for 10 minutes and shaken at speed 7. The lysate mixture was mix and 20 μL transferred to 100 μl of Diluent in ELISA plate (0.15 μg/ml-0.075 μg/ml). The lysate-diluent mixture was store at 4° C. overnight on a shaker located in a cold room at speed 5 (gentle swirl).
The lysate-diluent mixture was shaken for 30 minutes at 37° C. The mouse AR antibody, anti-mouse antibody, TMB, and STOP solution were allowed to come to room temperature. The 1×ELISA buffer included in kit was made and loaded in reservoir. Media from the plate was discarded, the ELISA plate was tapped hard on paper towel, and washed 4×200 μl ELISA wash buffer using a plate washer for the first three washes and an eight channel aspirator for the fourth wash to more thoroughly aspirate the solution.
Next, 100 μL/well of mouse AR detection Ab was added; the plate was covered and shaken at 37° C. for 1 hour; media was discarded from the plates, the plates tapped on a paper towel and washed four times with 200 μL ELISA wash buffer with a plate washer for the first three washes and an eight channel aspirator for the fourth wash; 100 μL/well of anti-mouse—HRP conjugated Ab (comes with the kit) was added; the plates wascover and shaken at 37° C. for 30 minutes; the TMB reagent was allowed to come to room temperature; the media from the plate was discarded, the plates tapped on paper towel, and washed four times with 200 μL ELISA wash buffer with a plate washer for the first three washes and an eight channel aspirator for the fourth wash; plates were tapped on paper towl; 100 μL TMB was added to each well and the plate shaken for 2 minutes—while watching color. STOP solution (100 μL) was added when light blue color developed. The plates were shake and read at 450 nm.
Data was analyzed and plotted using GraphPad Prism software. Exemplary compounds of Table 1 were assayed and the data shown below in Table 2. […]

Q: Which results are given for `N#Cc1ncc(N2C(=O)C3(CCC3)N(c3ccc(OC4CCN(CC5CCN(c6ccc7c(c6)C(=O)N(C6CCC(=O)NC6=O)C7=O)CC5)CC4)c(F)c3)C2=S)cc1Cl` (centres unmarked) [Compound 10, 3-chloro-5-(5-(4-((1-((1-(2-(2,6-dioxopiperidin-3-yl)-1,3-dioxoisoindolin-5-yl)piperidin-4-yl)methyl)piperidin-4-yl)oxy)-3-fluorophenyl)-8-oxo-6-thioxo-5,7-diazaspiro[3.4]octan-7-yl)picolinonitrile]?
A: DC50: 1 to 10 nM; Dmax Code: A (A≥70)

Q: Which DC50 does the source give for `CCN(CC1CCN(CCOc2ccc(CN3C(=S)N(c4ccc(C#N)c(C(F)(F)F)c4)C(=O)C3(C)C)cn2)CC1)[C@H]1C[C@H](Oc2ccc3c(c2)C(=O)N(C2CCC(=O)NC2=O)C3=O)C1` (some centres unmarked) [Compound 16, 4-(3-((6-(2-(4-((((1r,3r)-3-((2-(2,6-dioxopiperidin-3-yl)-1,3-dioxoisoindolin-5-yl)oxy)cyclobutyl)(ethyl)amino)methyl)piperidin-1-yl)ethoxy)pyridin-3-yl)methyl)-4,4-dimethyl-5-oxo-2-thioxoimidazolidin-1-yl)-2-(trifluoromethyl)benzonitrile] here?
A: 1 to 10 nM

Q: And the “Dmax Code” value?
A: C (C<50)

Q: Which results are given for `Cc1c(C#N)c(-c2ccc(C#N)cc2)c(C)n1Cc1ccc(OCCOCCN2CCC(CN3CCN(c4ccc5c(c4)C(=O)N(C4CCC(=O)NC4=O)C5=O)CC3)CC2)cc1` (centres unmarked) [Compound 22, 4-(4-cyanophenyl)-1-(4-(2-(2-(4-((4-(2-(2,6-dioxopiperidin-3-yl)-1,3-dioxoisoindolin-5-yl)piperazin-1-yl)methyl)piperidin-1-yl)ethoxy)ethoxy)benzyl)-2,5-dimethyl-1H-pyrrole-3-carbonitrile]?
A: DC50: ≥ 100 nM; Dmax Code: C (C<50)

Q: What does the source list for `CC(C)N(CC1CCN(CCCCn2c(=O)n(-c3ccc(C#N)c(C(F)(F)F)c3)c3ccccc32)CC1)[C@H]1C[C@H](Oc2ccc3c(c2)C(=O)N(C2CCC(=O)NC2=O)C3=O)C1` (some centres unmarked) [Compound 24, 4-(3-(4-(4-((((1r,3r)-3-((2-(2,6-dioxopiperidin-3-yl)-1,3-dioxoisoindolin-5-yl)oxy)cyclobutyl)(isopropyl)amino)methyl)piperidin-1-yl)butyl)-2-oxo-2,3-dihydro-1H-benzo[d]imidazol-1-yl)-2-(trifluoromethyl)benzonitrile]?
A: DC50: ≥ 100 nM; Dmax Code: C (C<50)

Q: Which DC50 does the source give for `N#Cc1ncc(N2C(=O)C3(CCC3)N(c3ccc(CCCCCN4CCN(c5ccc6c(c5)C(=O)N(C5CCC(=O)NC5=O)C6=O)CC4)cc3)C2=S)cc1Cl` (centres unmarked) [Compound 1, 3-chloro-5-(5-(4-(5-(4-(2-(2,6-dioxopiperidin-3-yl)-1,3-dioxoisoindolin-5-yl)piperazin-1-yl)pentyl)phenyl)-8-oxo-6-thioxo-5,7-diazaspiro[3.4]octan-7-yl)picolinonitrile] here?
A: < 1 nM

Q: What about the “Dmax Code” value of the same compound?
A: A (A≥70)

Q: What does the source list for `CC(C)N(CC1CCN(c2ccc(CCn3c(=O)n(-c4ccc(C#N)c(C(F)(F)F)c4)c4ccccc43)cc2)CC1)[C@H]1C[C@H](Oc2ccc3c(c2)C(=O)N(C2CCC(=O)NC2=O)C3=O)C1` (some centres unmarked) [Compound 17, 4-(3-(4-(4-((((1r,3r)-3-((2-(2,6-dioxopiperidin-3-yl)-1,3-dioxoisoindolin-5-yl)oxy)cyclobutyl)(isopropyl)amino)methyl)piperidin-1-yl)phenethyl)-2-oxo-2,3-dihydro-1H-benzo[d]imidazol-1-yl)-2-(trifluoromethyl)benzonitrile]?
A: DC50: 10 to 100 nM; Dmax Code: C (C<50)

Q: For `Cc1c(C#N)c(-c2ccc(C#N)cc2)c(C)n1Cc1ccc(OCCCN2CCC(CN3CCN(c4ccc5c(c4)C(=O)N(C4CCC(=O)NC4=O)C5=O)CC3)CC2)cc1` (centres unmarked) [Compound 19, 4-(4-cyanophenyl)-1-(4-(3-(4-((4-(2-(2,6-dioxopiperidin-3-yl)-1,3-dioxoisoindolin-5-yl)piperazin-1-yl)methyl)piperidin-1-yl)propoxy)benzyl)-2,5-dimethyl-1H-pyrrole-3-carbonitrile], which DC50 is on record?
A: ≥ 100 nM

Q: What about the “Dmax Code” value of the same compound?
A: C (C<50)

Q: For `CC1(C)C(=O)N(c2ccc(C#N)c(C(F)(F)F)c2)C(=S)N1Cc1ccc(N2CCC(CN3CCN(c4ccc5c(c4)C(=O)N(C4CCC(=O)NC4=O)C5=O)CC3)CC2)nc1` (centres unmarked) [Compound 3, 4-(3-((6-(4-((4-(2-(2,6-dioxopiperidin-3-yl)-1,3-dioxoisoindolin-5-yl)piperazin-1-yl)methyl)piperidin-1-yl)pyridin-3-yl)methyl)-4,4-dimethyl-5-oxo-2-thioxoimidazolidin-1-yl)-2-(trifluoromethyl)benzonitrile], which DC50 is on record?
A: < 1 nM

Q: What about the “Dmax Code” value of the same compound?
A: A (A≥70)

Q: Which DC50 does the source give for `N#Cc1ccc(N2C(=O)C3(CCC3)N(c3ccc(N4CCC(CN5CCN(c6ccc7c(c6)C(=O)N(C6CCC(=O)NC6=O)C7=O)CC5)CC4)c(F)c3)C2=S)cc1Cl` (centres unmarked) [Compound 5, 2-chloro-4-(5-(4-(4-((4-(2-(2,6-dioxopiperidin-3-yl)-1,3-dioxoisoindolin-5-yl)piperazin-1-yl)methyl)piperidin-1-yl)-3-fluorophenyl)-8-oxo-6-thioxo-5,7-diazaspiro[3.4]octan-7-yl)benzonitrile] here?
A: < 1 nM

Q: What about the “Dmax Code” value of the same compound?
A: A (A≥70)

Q: How did the DC50 turn out when `CC(C)N(CC1CCN(c2ccc(Cn3c(=O)n(-c4ccc(C#N)c(C(F)(F)F)c4)c4ccccc43)cc2)CC1)[C@H]1C[C@H](Oc2ccc3c(c2)C(=O)N(C2CCC(=O)NC2=O)C3=O)C1` (some centres unmarked) [Compound 25, 4-(3-(4-(4-((((1r,3r)-3-((2-(2,6-dioxopiperidin-3-yl)-1,3-dioxoisoindolin-5-yl)oxy)cyclobutyl)(isopropyl)amino)methyl)piperidin-1-yl)benzyl)-2-oxo-2,3-dihydro-1H-benzo[d]imidazol-1-yl)-2-(trifluoromethyl)benzonitrile] was run?
A: ≥ 100 nM

Q: And the “Dmax Code” value?
A: C (C<50)

Q: Which results are given for `COc1cc(N2C(=O)C3(CCC3)N(c3ccc(N4CCC(CN5CCN(c6ccc7c(c6)C(=O)N(C6CCC(=O)NC6=O)C7=O)CC5)CC4)cc3)C2=S)ccc1C#N` (centres unmarked) [Compound 7, 4-(5-(4-(4-((4-(2-(2,6-dioxopiperidin-3-yl)-1,3-dioxoisoindolin-5-yl)piperazin-1-yl)methyl)piperidin-1-yl)phenyl)-8-oxo-6-thioxo-5,7-diazaspiro[3.4]octan-7-yl)-2-methoxybenzonitrile]?
A: DC50: 1 to 10 nM; Dmax Code: B (50≤B<70)

Q: How did the DC50 turn out when `COc1cc(N2C(=O)C3(CCC3)N(c3ccc(N4CCC(CN5CCN(c6ccc7c(c6)C(=O)N(C6CCC(=O)NC6=O)C7=O)CC5)CC4)c(F)c3)C2=S)ccc1C#N` (centres unmarked) [Compound 6, 4-(5-(4-(4-((4-(2-(2,6-dioxopiperidin-3-yl)-1,3-dioxoisoindolin-5-yl)piperazin-1-yl)methyl)piperidin-1-yl)-3-fluorophenyl)-8-oxo-6-thioxo-5,7-diazaspiro[3.4]octan-7-yl)-2-methoxybenzonitrile] was run?
A: 1 to 10 nM

Q: What about the “Dmax Code” value of the same compound?
A: A (A≥70)

Q: With `N#Cc1ncc(N2C(=O)C3(CCC3)N(c3ccc(OC4CCN(CC5CCN(c6ccc7c(c6)C(=O)N(C6CCC(=O)NC6=O)C7=O)CC5)CC4)nc3)C2=S)cc1C(F)(F)F` (centres unmarked) [Compound 12, 5-(5-(6-((1-((1-(2-(2,6-dioxopiperidin-3-yl)-1,3-dioxoisoindolin-5-yl)piperidin-4-yl)methyl)piperidin-4-yl)oxy)pyridin-3-yl)-8-oxo-6-thioxo-5,7-diazaspiro[3.4]octan-7-yl)-3-(trifluoromethyl)picolinonitrile] as the compound, how does the DC50 read?
A: 1 to 10 nM

Q: What about the “Dmax Code” value of the same compound?
A: B (50≤B<70)
